Reference: article PMC10439028, “SGLT5 is the renal transporter for 1,5-anhydroglucitol, a major player in two rare forms of neutropenia” (Cellular and Molecular Life Sciences: CMLS, 2023)

Biological target: T1, hSGLT5 Arg401His (Homo sapiens, UniProt A0PJK1, R401H)
T1 construct: pUB83-hSGLT5-iso2 as well as the various SGLT5 mutants obtained were used to transduce HEK293T cells; expressed in transfected cells; host or cells: HEK293T, lentiviral transduction (pUB83)
T1 sequence (A0PJK1 1-596 R401H): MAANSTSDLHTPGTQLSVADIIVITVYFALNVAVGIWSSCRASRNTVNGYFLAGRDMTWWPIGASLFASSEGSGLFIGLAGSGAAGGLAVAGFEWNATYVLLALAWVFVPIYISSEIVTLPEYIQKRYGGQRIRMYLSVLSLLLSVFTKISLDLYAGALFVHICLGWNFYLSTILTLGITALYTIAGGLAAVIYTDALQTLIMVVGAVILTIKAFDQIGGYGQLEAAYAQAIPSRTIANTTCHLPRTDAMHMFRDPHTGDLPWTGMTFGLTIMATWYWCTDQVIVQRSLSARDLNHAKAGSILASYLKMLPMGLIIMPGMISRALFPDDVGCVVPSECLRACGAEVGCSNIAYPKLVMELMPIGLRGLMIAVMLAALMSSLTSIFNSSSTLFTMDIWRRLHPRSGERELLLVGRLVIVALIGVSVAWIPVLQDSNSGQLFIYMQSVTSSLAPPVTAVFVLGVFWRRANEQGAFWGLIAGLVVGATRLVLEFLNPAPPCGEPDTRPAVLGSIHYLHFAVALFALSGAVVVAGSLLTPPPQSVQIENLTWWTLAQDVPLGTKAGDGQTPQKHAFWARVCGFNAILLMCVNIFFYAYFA
Experiment: 1,5-AG uptake in HEK293T cells overexpressing SGLT5 variant Arg401His
Type: cell-based
Protocol: For a typical transporter experiment we proceeded as follows. […] To minimize cell loss during the various washing steps in the radioactive uptake experiments, the wells where the cells were seeded were previously coated with poly- D-lysine, which improved their adhesion to the plastic surface of the wells. For this, each well of the 24-well plates was treated with 200 µl of a 0.01% poly-L-lysine solution for 10 min, washed 3 times with 1 ml of sterilized water and left to dry for 2 h. Only then could the 24-well plates be seeded with the appropriate cell lines and cultured overnight at 37 °C in 5% CO2.
On day two, the radioactive uptake assay could be performed. The cell culture media was removed by aspiration and cells were incubated for 20 min at 37 °C and 5% CO2 with a basal medium (10 mM HEPES, pH 7.4, 1 mM CaCl2, 1 mM MgCl2, 2 mM KCl) containing 140 mM choline chloride to deplete intracellular Na^2+ ions. […]
Once the uptake medium was added to the cells, the plates were incubated at 37 °C in 5% CO2 during the required time. […] In each experiment, the transport activities were calculated after subtracting a “blank” value, corresponding to the radioactivity in the appropriate control cells (HEK293T cells that were stably or transiently transfected with one of the parent plasmids pEF6/MycHisA, pEF6HisB, pUB82 or pUB83 with no inserted cDNA) that were analyzed in parallel. […]

OC[C@H]1OC[C@H](O)[C@@H](O)[C@@H]1O [1,5-AG, 1,5-anhydroglucitol]
Vmax: 11.4 ± 0.2 pmol/min/10^5cells | reduction of transport efficiency compared to SGLT5: twofold
